Source: publication PMC12785453, “Oral Fluid Concentrations and Pharmacological Effects of Clephedrone and Methylone in Humans” (International Journal of Molecular Sciences, 2025)

Assays:
Type in all cases: in vivo, humans
[1] = system: healthy volunteers; test: Subjective effects, VESSPA-SSE, clephedrone study; details: 100 or 150 mg oral, n=8
Excerpt: The study evaluating the acute effects of clephedrone was designed as a non-controlled, prospective, observational, and naturalistic study. The procedures and evaluations included in this study have been described in previous studies evaluating other synthetic cathinones (mephedrone, methylone, alpha-PVP, NEP, HEXEN), phenethylamines (2C-B and 2C-E), or synthetic cannabinoids (JWH-122, JWH-210, UR-144).
This study consisted of one experimental session in which participants (N = 8; 6 women, 2 men) selected their oral dose of clephedrone based on their drug use experience and preferences. According to their dose selection, 3 women and 1 man ingested 100 mg of clephedrone, while the remaining 3 women and 1 man opted for a higher dose of 150 mg. […] Participants were recruited by word of mouth by the harm reduction organization Energy Control in Barcelona (Associació Benestar i Desenvolupament, ABD).
(§1) Subjective effects were evaluated with visual analog scales (VAS), the short form of the Addiction Research Center Inventory (ARCI), and the Evaluation of Subjective Effects of Substances with Abuse Potential questionnaire (VESSPA-SSE). In addition, the Sensitivity to Drug Reinforcement Questionnaire (SDRQ) and a pharmacological identification class questionnaire were used in the controlled study administering methylone.
(§2) The VESSPA-SSE questionnaire, used to evaluate the subjective effects of stimulant drugs, The questionnaire includes 36-items and consists of six subscales that measure sedation (S), psychosomatic anxiety (ANX), changes in perception (CP), pleasure and sociability (SOC), activity and energy (ACT), and psychotic symptoms (PS).
(§3) Participants included in the naturalistic clephedrone study completed VAS at baseline, 0.50, 1, 1.5, 2, 3, 4, and 5 h, and ARCI and VESSPA at baseline, 1, 2, 3, 4, and 5 h after self-administering clephedrone. In the controlled study, VAS was performed at baseline and 0.25, 0.50, 0.75, 1, 1.5, 2, 3, 4, 6, 8, 10, and 24 h, and ARCI and VESSPA at baseline and 1, 2, 3, 4, 6, 8, and 10 h after administering methylone. Participants completed SDRQ and VAS sexual desire and arousal at baseline, 1 and 10 h, and the pharmacological class identification questionnaire at 8 h.
(§4) For statistical analysis, values of physiological (SBP, DBP, HR, and T) and subjective effects (VAS, ARCI, and VESSPA-SSE) were baseline–adjusted. Maximum effects (Emax) and the time needed to reach maximum effects (Tmax) were determined, and the area under the curve up to 5 h (AUC0–5h) for clephedrone and up to 6 h (AUC0–6h) for methylone was calculated using the trapezoidal rule. Emax and AUC values are presented as mean ± standard deviation, whereas Tmax is presented in median (range).
(§5) To find possible significant changes through the time course compared to baseline, a Dunnett multiple comparison test was carried out to compare each time point with baseline in both drug conditions. For clephedrone the comparisons were 0–0.5 h, 0–1 h, 0–1.5 h, 0–2 h, 0–3 h, 0–4 h and 0–5 h, and for methylone this analysis included 0–0.25 h, 0–0.5 h, 0–0.75 h, 0–1 h, 0–1.5 h, 0–2 h, 0–3 h, 0–4 h and 0–6 h. Given their different study designs, no comparative analysis between the time courses of both synthetic cathinones was conducted.

[2] = system: healthy male participants; test: Physiological effects (SBP, DBP, HR, T), controlled methylone pilot clinical trial
Method: (§6) Methylone pharmacology was evaluated in a study designed as a randomized, double-blind, placebo-controlled, crossover clinical trial. Four pilot studies were conducted administering methylone at oral doses of 50 (n = 3), 100 (n = 6), 150 (n = 5), and 200 mg (n = 7). Participants attended 3 experimental sessions separated by a one-week wash-out period and received two doses of methylone (one dose per experimental session) compared to placebo, except in the last pilot study in which participants received one dose of methylone, compared to MDMA and placebo. However, in this manuscript, only the results corresponding to the highest methylone doses (n = 12; 150 and 200 mg; mean dose = 179.2 mg) are presented, to enable comparison with clephedrone self-administration. Participants were recruited by word of mouth in the volunteer database of the clinical pharmacology unit.
Participants of the naturalistic clephedrone study were summoned at 15:00 h at the private club where sessions were carried out. The club remained closed to the public until the end of the session, approximately at 21:00 h. As a naturalistic study, participants were left free to talk, read, play games, or listen to music in the time between study evaluations. To avoid possible influences between participants, they were asked to refrain from talking about the effects of the self-administered substance. The experimental sessions of the controlled pilot trial were carried out at the Clinical Research Unit (UPIC) of the Germans Trias i Pujol hospital, where participants were summoned at 7:45 a.m. after fasting overnight and remained there for approximately 11 h.
(§7) Methylone hydrochloride of high purity in powder form was acquired from LGC Standards (Teddington, UK) for the controlled study. The Pharmacy Department of the Hospital Universitari Germans Trias i Pujol was responsible for manufacturing, storing, and dispensing identical and opaque soft gelatin capsules containing 50 mg of methylone or a placebo (maltodextrin). Treatment consisted of 5 capsules that combined methylone and/or a placebo to reach the target dose. Details can be found in the previous article.
In the controlled methylone study, vital signs monitors (Philips Sure Signs VM4 monitors, Philips, Amsterdam, The Netherlands) were used to measure SBP, DBP, HR, and oral temperature at baseline (−30 and −15 min) and 0.25, 0.50, 0.75, 1.5, 2, 3, 4, 6, 8, 10, and 24 h after administration. For these evaluations, participants rested in hospital beds in a position of back elevation. Furthermore, electrocardiograms were constantly monitored throughout the sessions for safety reasons.
as §4, §5

[3] = system: healthy male participants; test: Subjective effects, VESSPA-SSE, methylone trial; details: 150 or 200 mg oral
Method: as §6, §7, §1, §2, §3, §4, §5

[4] = 150 or 200 mg oral, n=12, listed as methylone
[5] = AUC0–6h, 150 or 200 mg oral, n=12

## CNC(C)C(=O)c1ccc(Cl)cc1 (centres unmarked) [Clephedrone, 4-chloromethcathinone]
[1]
  VESSPA ANX (psychosomatic anxiety) Emax: 1.33 ± 0.45 points
  VESSPA CP (changes in perception) Emax: 0.02 ± 0.06 points
  VESSPA CP (changes in perception) Tmax: 0.0 (0.0–1.0) h
  VESSPA S (sedation) Emax: 0.90 ± 0.73 points
  VESSPA SOC (pleasure and sociability) Emax: 2.85 ± 0.47 points
  VESSPA-ACT (activity and energy) Emax: 2.52 ± 0.46 points
  VESSPA-PS (psychotic symptoms) Emax: 0.38 ± 0.50 points
[1]; AUC0–5h
  VESSPA ANX (psychosomatic anxiety) AUC0-5/6 h: 3.01 ± 0.95 points·h
  VESSPA CP (changes in perception) AUC0-5/6 h: 0.06 ± 0.18 points·h
  VESSPA S (sedation) AUC0-5/6 h: 1.69 ± 1.43 points·h
  VESSPA SOC (pleasure and sociability) AUC0-5/6 h: 7.74 ± 3.00 points·h
  VESSPA-ACT (activity and energy) AUC0-5/6 h: 5.93 ± 2.65 points·h
  VESSPA-PS (psychotic symptoms) AUC0-5/6 h: 1.15 ± 2.02 points·h

## CNC(C)C(=O)c1ccc2c(c1)OCO2 (centres unmarked) [Methylone, 3,4-methylenedioxy-N-methylcathinone]
[2]; 150 or 200 mg oral
  Onset of cardiovascular effects after administration: 0.5 h
  SBP effects returned to baseline: 3 h
[2]; 150 or 200 mg oral, n=12
  DBP Emax: 3.75 ± 11.52 mmHg
  HR Emax: 28.75 ± 16.09 bpm
  SBP Emax: 27.04 ± 10.72 mmHg
[2]; [4]
  DBP Emax: 3.75 mmHg
  HR Emax: 28.75 bpm
  SBP Emax: 27.04 mmHg
[2]; [5]
  HR AUC0-5/6 h: 97.07 ± 69.24 bpm·h
  SBP AUC0-5/6 h: 38.70 ± 26.84 mmHg·h
[2]; AUC0–6h, oral temperature, 150 or 200 mg oral, n=12
  T AUC0-5/6 h: 0.88 ± 1.34 °C·h
[2]; all administered doses (150 or 200 mg oral)
  Tolerability, serious adverse events: well tolerated
[2]; oral temperature, 150 or 200 mg oral, n=12
  T Emax: 0.23 ± 0.34 °C
[3]
  Tmax of VESSPA subscales: 1 h
[3]; n=12
  VESSPA ANX (psychosomatic anxiety) Emax: 0.92 ± 0.51 points
  VESSPA CP (changes in perception) Emax: 0.00 ± 0.00 points
  VESSPA CP (changes in perception) Tmax: 0.0 (0.0–0.0) h
  VESSPA S (sedation) Emax: 0.56 ± 0.59 points
  VESSPA SOC (pleasure and sociability) Emax: 1.24 ± 1.56 points
  VESSPA-ACT (activity and energy) Emax: 0.82 ± 0.84 points
  VESSPA-PS (psychotic symptoms) Emax: 0.06 ± 0.11 points
[3]; n=12, listed as methylone
  VESSPA SOC (pleasure and sociability) Emax: higher than 1 points
[3]; AUC0–6h, n=12
  VESSPA ANX (psychosomatic anxiety) AUC0-5/6 h: 2.51 ± 2.22 points·h
  VESSPA CP (changes in perception) AUC0-5/6 h: 0.00 ± 0.00 points·h
  VESSPA S (sedation) AUC0-5/6 h: 1.39 ± 1.96 points·h
  VESSPA SOC (pleasure and sociability) AUC0-5/6 h: 1.63 ± 2.13 points·h
  VESSPA-ACT (activity and energy) AUC0-5/6 h: 1.02 ± 1.08 points·h
  VESSPA-PS (psychotic symptoms) AUC0-5/6 h: 0.10 ± 0.24 points·h
